Results reported in patent US12077503B2, “Substituted cyclic amides and their use as herbicides” (FMC CORPORATION, priority 2015, dated 2024).

What was measured:
Type in all cases: in vivo
[1] = system: barnyardgrass (Echinochloa crus-galli); assay: Test A preemergence; settings: Echinochloa crus-galli, pre-emergence, 240 h, preemergence, 0 to 100 scale where 0 is no effect and 100 is complete control, read-out: Barnyardgrass plant response rating; for pest or weed control at 125 g/ha: 125 g ai/ha, visual injury rating, approximately 10 d; for pest or weed control at 500 g/ha: 500 g ai/ha
Procedure, shortened: (§1)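 Visual injury, scored on a 0–100 scale relative to untreated controls, was recorded about 10 d after application. Treatments were a preemergence soil spray over planted seeds or a postemergence spray on plants at the one- to two-leaf stage, 2 to 10 cm tall, all in loam soil–sand blend in the greenhouse.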

[2] = system: Galium (catchweed bedstraw, Galium aparine); assay: Test A postemergence; settings: Galium, post-emergence, 240 h, postemergence; for pest or weed control at 125 g/ha: 125 g ai/ha, visual injury vs untreated controls after approx. 10 d, 0 = no effect, 100 = complete control, read-out: Galium plant response rating (0 to 100 scale); for pest or weed control at 500 g/ha: 500 g ai/ha, 0 to 100 scale, 0 is no effect, 100 is complete control, read-out: Galium plant response rating
Procedure, shortened: as §1

Kochia (Kochia scoparia) = assay: Test A postemergence; settings: Bassia scoparia, post-emergence, 240 h, postemergence; for pest or weed control at 125 g/ha: 125 g ai/ha, visual injury vs untreated controls after approx. 10 d, 0 = no effect, 100 = complete control, read-out: Kochia plant response rating (0 to 100 scale); for pest or weed control at 500 g/ha: 500 g ai/ha, 0 to 100 scale, 0 is no effect, 100 is complete control, read-out: Kochia plant response rating
Procedure, shortened: as §1

[3] = system: blackgrass (Alopecurus myosuroides); assay: Test A postemergence; settings: Alopecurus myosuroides, post-emergence, 240 h, postemergence; for pest or weed control at 125 g/ha: 125 g ai/ha, visual injury vs untreated controls after approx. 10 d, 0 = no effect, 100 = complete control, read-out: Blackgrass plant response rating (0 to 100 scale); for pest or weed control at 500 g/ha: 500 g ai/ha, 0 to 100 scale, 0 is no effect, 100 is complete control, read-out: Blackgrass plant response rating
Procedure, shortened: as §1

corn (Zea mays) = assay: Test A postemergence; settings: Zea mays, post-emergence, 240 h, postemergence; for plant injury at 125 g/ha: 125 g ai/ha, visual injury vs untreated controls after approx. 10 d, 0 = no effect, 100 = complete control, read-out: Corn plant response rating (0 to 100 scale); for plant injury at 500 g/ha: 500 g ai/ha, 0 to 100 scale, 0 is no effect, 100 is complete control, read-out: Corn plant response rating
Procedure, shortened: as §1

[4] = system: giant foxtail (Setaria faberii); assay: Test A postemergence; settings: Setaria faberi, post-emergence, 240 h, postemergence; for pest or weed control at 125 g/ha: 125 g ai/ha, visual injury vs untreated controls after approx. 10 d, 0 = no effect, 100 = complete control, read-out: Foxtail, Giant plant response rating (0 to 100 scale); for pest or weed control at 500 g/ha: 500 g ai/ha, 0 to 100 scale, 0 is no effect, 100 is complete control, read-out: Foxtail, Giant plant response rating
Procedure, shortened: as §1

[5] = system: pigweed (Amaranthus retroflexus); assay: Test A postemergence; settings: Amaranthus retroflexus, post-emergence, 240 h, postemergence; for pest or weed control at 125 g/ha: 125 g ai/ha, visual injury vs untreated controls after approx. 10 d, 0 = no effect, 100 = complete control, read-out: Pigweed plant response rating (0 to 100 scale); for pest or weed control at 500 g/ha: 500 g ai/ha, 0 to 100 scale, 0 is no effect, 100 is complete control, read-out: Pigweed plant response rating
Procedure, shortened: as §1

[6] = system: ragweed (common ragweed, Ambrosia elatior); assay: Test A postemergence; settings: Ambrosia artemisiifolia, post-emergence, 240 h, postemergence; for pest or weed control at 125 g/ha: 125 g ai/ha, visual injury vs untreated controls after approx. 10 d, 0 = no effect, 100 = complete control, read-out: Ragweed plant response rating (0 to 100 scale); for pest or weed control at 500 g/ha: 500 g ai/ha, 0 to 100 scale, 0 is no effect, 100 is complete control, read-out: Ragweed plant response rating
Procedure, shortened: as §1

[7] = system: ryegrass, Italian (Italian ryegrass, Lolium multiflorum); assay: Test A postemergence; settings: Lolium multiflorum, post-emergence, 240 h, postemergence; for pest or weed control at 125 g/ha: 125 g ai/ha, visual injury vs untreated controls after approx. 10 d, 0 = no effect, 100 = complete control, read-out: Ryegrass, Italian plant response rating (0 to 100 scale); for pest or weed control at 500 g/ha: 500 g ai/ha, 0 to 100 scale, 0 is no effect, 100 is complete control, read-out: Ryegrass, Italian plant response rating
Procedure, shortened: as §1

[8] = system: wheat (Triticum aestivum); assay: Test A postemergence; settings: Triticum aestivum, post-emergence, 240 h, postemergence; for plant injury at 125 g/ha: 125 g ai/ha, visual injury vs untreated controls after approx. 10 d, 0 = no effect, 100 = complete control, read-out: Wheat plant response rating (0 to 100 scale); for plant injury at 500 g/ha: 500 g ai/ha, 0 to 100 scale, 0 is no effect, 100 is complete control, read-out: Wheat plant response rating
Procedure, shortened: as §1

[9] = system: barnyardgrass (Echinochloa crus-galli); assay: Test B flooded paddy test; settings: Echinochloa crus-galli, 250 g ai/ha, Flood; 0 to 100 scale where 0 is no effect and 100 is complete control; read-out: Barnyardgrass plant response rating
Procedure, shortened: (§2)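 Percent control, visually estimated after 13–15 d in the greenhouse on a 0–100 basis, compares treated pots with untreated ones; compound was put into paddy water 3 cm above the soil when plants had two leaves.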

[10] = system: ducksalad (Heteranthera limosa); assay: Test B flooded paddy test; settings: Heteranthera limosa, 250 g ai/ha, Flood; 0 to 100 scale where 0 is no effect and 100 is complete control; read-out: Ducksalad plant response rating
Procedure, shortened: as §2

rice (Oryra sativa) = assay: Test B flooded paddy test; settings: Oryza sativa, 250 g ai/ha, Flood; 0 to 100 scale where 0 is no effect and 100 is complete control; read-out: Rice plant response rating
Procedure, shortened: as §2

[11] = system: sedge, umbrella (small-flower umbrella sedge, Cyperus difformis); assay: Test B flooded paddy test; settings: Cyperus difformis, 250 g ai/ha, Flood; 0 to 100 scale where 0 is no effect and 100 is complete control; read-out: Sedge, Umbrella plant response rating
Procedure, shortened: as §2

| SMILES | pest or weed control at 125 g/ha [1] | pest or weed control at 500 g/ha [1] | pest or weed control at 125 g/ha [2] | pest or weed control at 500 g/ha [2] | pest or weed control at 125 g/ha (Kochia (Kochia scoparia)) | pest or weed control at 500 g/ha (Kochia (Kochia scoparia)) | pest or weed control at 125 g/ha [3] | pest or weed control at 500 g/ha [3] | plant injury at 125 g/ha (corn (Zea mays)) | plant injury at 500 g/ha (corn (Zea mays)) | pest or weed control at 125 g/ha [4] | pest or weed control at 500 g/ha [4] | pest or weed control at 125 g/ha [5] | pest or weed control at 500 g/ha [5] | pest or weed control at 125 g/ha [6] | pest or weed control at 500 g/ha [6] | pest or weed control at 125 g/ha [7] | pest or weed control at 500 g/ha [7] | plant injury at 125 g/ha [8] | plant injury at 500 g/ha [8] | further results |
| --- | --- | --- | --- | --- | --- | --- | --- | --- | --- | --- | --- | --- | --- | --- | --- | --- | --- | --- | --- | --- | --- |
| Cc1c(F)cccc1NC(=O)[C@H]1C(=O)N(C)C[C@@H]1c1ccc(C(F)(F)F)nc1 [Compound 1197] | 100% | 100% | 60% | 60% | 70% | 80% | 50% | 50% | 80% | 90% | 90% | 90% | 50% | 70% | 50% | 60% | 30% | 60% | 50% | 60% | pest or weed control at 250 g/ha [9]: 70%; pest or weed control at 250 g/ha [10]: 100%; pest or weed control at 250 g/ha (rice (Oryra sativa)): 0%; pest or weed control at 250 g/ha [11]: 0% |
| COc1cc(C(F)(F)F)ccc1[C@H]1CNC(=O)[C@@H]1C(=O)Nc1ccccc1F [Compound 1202] | 90% | 90% | 0% | 40% | 30% | 40% | 0% | 40% | 20% | 30% | 70% | 90% | 0% | 20% | 0% | 20% | 0% | 0% | 0% | 50% | pest or weed control at 250 g/ha [9]: 0%; pest or weed control at 250 g/ha [10]: 100%; pest or weed control at 250 g/ha (rice (Oryra sativa)): 0%; pest or weed control at 250 g/ha [11]: 0% |
| COc1ccc([C@H]2CN(C)C(=O)[C@@H]2C(=O)Nc2cccc(F)c2F)c(OC)c1 [Compound 1209] | 90% | 90% | 0% | 30% | 0% | 50% | 0% | 30% | 0% | 0% | 80% | 90% | 0% | 0% | 0% | 0% | 0% | 20% | 0% | 20% | pest or weed control at 250 g/ha [9]: 0%; pest or weed control at 250 g/ha [10]: 50%; pest or weed control at 250 g/ha (rice (Oryra sativa)): 0%; pest or weed control at 250 g/ha [11]: 0% |
| COc1cc([C@H]2CN(C)C(=O)[C@@H]2C(=O)Nc2cccc(F)c2F)cc(OC)c1OC [Compound 1210] | 90% | 100% | 0% | 0% | 0% | 0% | 0% | 50% | 0% | 50% | 90% | 90% | 0% | 0% | 0% | 0% | 30% | 60% | 0% | 60% | pest or weed control at 250 g/ha [9]: 50%; pest or weed control at 250 g/ha [10]: 30%; pest or weed control at 250 g/ha (rice (Oryra sativa)): 20%; pest or weed control at 250 g/ha [11]: 0% |
